From patent US20120141601A1, “DIETARY SUPPLEMENT, FEED AND PHARMACEUTICAL COMPOSITION CONTAINING CHIA SEED AND MACA, AND PREPARATION METHOD THEREOF” (priority 2009, published 2012)

What was measured:
Type in all cases: in vivo, Sprague-Dawley male rats
[1] = Endurance test, weighted swimming in bath
Experimental: (§1) Sprague-Dawley male rats (Orientbio) were divided into groups of six which were then administered for 26 days with neither alcohol nor the extracts for the normal group, with alcohol but not with extracts for the control group, with alcohol and 1% by weight octacosanol, with alcohol and 1% by weight chia seeds, with alcohol and 0.5% by weight maca, and with alcohol and a mixture of 1% by weight chia seeds and 0.5% by weight maca, respectively. Typical feedstuff was fed, together with water, to the normal group and, together with 25% alcohol, to the control group while the feedstuff for the other groups contained the test substances as described above.
A swimming experiment was conducted in a transparent acryl bath (with a dimension of length 80 cm×width 50 cm×depth 90 cm) ⅔ filled with water maintained at 24° C. The Sprague-Dawley male rats (Orientbio) were allowed to freely swim with a weight equivalent to 8˜10% of their body weight suspended from the abdomen thereof. Measurements were made of the time it took for the rat to swim to a point at which the head was submerged for 10 sec or longer below the water surface (Hong, S. G., J. Kor. Food Sci. Nutr. 32(7), 1076 (2003)).
To investigate the effects of chia seeds and maca (extract), used as active ingredients in the composition of the present invention, on endurance, measurements of the swing time were analyzed. The swimming time was measured to be 306.33±6.21 sec for the normal group, but 147.16±21.71 sec for the control group, which was equivalent to about 46% of that of the normal group. In contrast, 352.66±34.69 sec was measured for the octacosanol-administered group, 355.66±34.62 sec for the chia seed-administered group, 476.00±45.56 sec for the maca-administered group, and 527.83±25.57 sec for the group co-administered with chia seeds and mace, which were increased by 2.4, 2.4, 3.2 and 3.5 times, compared to the control group. […]

[2] = Locomotor activity, open field test
Experimental: as §1
The locomotor activities of the groups set in Test Example 3 were measured in an open field test chamber (38.0 cm×26.0 cm×42.0 cm; LETICA, SPAIN). Horizontal activity was recorded by an IR detector for 10 min To investigate the effects that chia seeds and maca (extract), used as active ingredients in the composition of the present invention, had on locomotor activity, measurements of the horizontal activity were analyzed. The horizontal activity was 1179.2±21.2 cm for the normal group, but […] for the control group, which was decreased by about 75% compared to the normal. […]

[3] = Rotarod performance test for space perception and endurance
Experimental: as §1
The groups set in Test Example 3 were measured for space perception activity by the rotarod performance test which was conducted for 5 min for each rat with the cylinder (380×260×420 mm) of rotarod LE8300 (LETICA, SPAIN) rotating at a speed of 4 to 40 rpm. Cases in which the rats fell on the ground within 20 sec after starting were excluded from the measurement.
To investigate the effect of chia seeds and maca (extract), used as active ingredients in the composition of the present invention, on space perception and endurance, measurements of the rotarod performance test were analyzed. […] In contrast, the time was 98.16±11.35 sec for octacosanol-administered group, 151.50±5.08 sec for the chia seed-administered group, 215.33±13.14 sec for the maca-administered group and 240.66±39.30 sec for the group co-administered with chia seeds and maca, which were increased by 3, 5, 7, and 8 times, respectively, compared to the control group. As apparent from the data of the rotarod performance test, space perception and endurance were enhanced by octacosanol, chia seeds, maca, and a combination of chia seeds and maca, and most increased, inter alia, by the mixture of chia seeds and maca (FIG. 6, Table 2).

[4] = Blood alcohol concentration
Experimental: as §1
Blood alcohol concentrations were measured after the rats were administered 25% alcohol every day for 30 days. In this regard, blood samples were taken from the tail vein of the rats of the test groups set in Test Example 3 at 6 P.M. every five days, and blood alcohol concentrations were determined using an alcohol tester (Asia Commerce Co. Ltd., Model No. LION SD-400).
To investigate the effect of chia seeds and maca (extract), used as active ingredients in the composition of the present invention, on the degradation of blood alcohol, measurements of the blood alcohol concentration were analyzed. The blood alcohol concentration was 0% for the normal group and 0.06% for the control group. […]

alcohol dehydrogenase = assay: Hepatic alcohol dehydrogenase activity in liver homogenate; conditions: liver homogenate supernatant, absorbance at 340 nm; groups of Test Example 3
Experimental: as §1
(§2) In order to investigate the effect of the composition of the present invention on alcoholysis enzymes, the rats of the test groups set in Test Example 3 were anesthetized with chloroform and subjected to ventrotomy to excise the liver. The liver tissue was homogenized in 10 volumes of 100 mM sodium phosphate buffer, pH 7.4, using a homogenizer and then disrupted with an ultrasonicator. Centrifugation at 700 G for […] removed nuclei and cell debris. After centrifugation at 9,000 G for 20 min, the supernatant was measured for hepatic alcohol dehydrogenase and aldehyde dehydrogenase activity. The protein concentration of the supernatant was determined using a BCA kit and used to normalize the amount of liver tissue between test groups. […]

aldehyde dehydrogenase = assay: Hepatic aldehyde dehydrogenase activity in liver homogenate; conditions: liver homogenate supernatant, absorbance at 340 nm; groups of Test Example 3
Experimental: as §1, §2

testosterone = assay: Testosterone level in whole blood; conditions: 25% alcohol daily for 25 days, whole blood from the heart
Experimental: as §1
(§3) After the rats of the test groups set in Test Example 3 were administered with 25% alcohol every day for 25 days, blood samples were taken from the tail vein and measured for testosterone level using enzyme immunoassay (Roche, USA). The levels of testosterone and high-density lipoproteins in the whole blood taken from the heart were measured in Eone Reference Laboratory.
To investigate the effect of chia seeds and maca (extract), used as active ingredients in the composition of the present invention, on testosterone activity, the levels of testosterone in whole blood were analyzed. […]

[5] = tested on: high-density lipoproteins; assay: High-density lipoprotein level in whole blood; conditions: 25% alcohol daily for 25 days, whole blood from the heart
Experimental: as §1, §3
To investigate the effect of chia seeds and maca (extract), used as active ingredients in the composition of the present invention, on penile function, the levels of high-density lipoproteins were analyzed. […]

With `CCCCCCCCCCCCCCCCCCCCCCCCCCCCO` [octacosanol] the swimming time ([1]; 26 days, alcohol plus 1% octacosanol, 1% chia seeds, 0.5% maca or 1% chia seeds + 0.5% maca in feed, weight 8-10% of body weight) was 352.66 ± 34.69 s, the “swimming time” value ([1]; Table 1, endurance test with swimming in bath) was 352.66 ± 34.69 s and the “increase of swimming time compared to the control group” value ([1]; vs alcohol control group) was 2.4 times. For the same compound, the horizontal activity ([2]; open field, IR detector, 10 min, groups of Test Example 3) was 240.2±12.3 cm, the “increase of horizontal activity compared to the control group” value ([2]; vs alcohol control group) was 8 times and the time on rotarod ([3]; Table 2, rotarod performance test) was 98.16 ± 11.35 s. For the same compound, the “time that the rats stayed on the rotating cylinder” value ([3]; rotarod 4 to 40 rpm, 5 min, groups of Test Example 3) was 98.16 ± 11.35 s, the “increase of time on rotating cylinder compared to the control group” value ([3]; vs alcohol control group) was 3 times and the blood alcohol concentration ([4]; 25% alcohol daily for 30 days, tail vein blood, groups of Test Example 3) was 0.034%. For the same compound, the “decrease of blood alcohol concentration compared to the control group” value ([4]; vs alcohol control group) was 55%, the alcohol dehydrogenase activity (alcohol dehydrogenase) was 8.9±0.8 mmole/min/mg protein and the aldehyde dehydrogenase activity (aldehyde dehydrogenase) was 9.8±1.4 mmole/min/mg protein. The “level of testosterone in whole blood” value (testosterone) was 195 ± 62.2 ng/dL and the “level of high-density lipoproteins” value [5] was 32.5 ± 1.5 mg/dL.
